Reference: patent publication US9718825B2, “N-(4-(azaindazol-6-yl)-phenyl)-sulfonamides and their use as pharmaceuticals” (priority 2013, dated 2017)
pIC50: −log10 of the molar value. Where two headings read alike, the source gives them in different places.

Assays:
[1] = molecular target: recombinant human SGK-1 enzyme (Homo sapiens, UniProt O00141); test: Enzymatic activity assay: SGK-1 substrate peptide phosphorylation (Caliper lab-chip mobility shift); type: biochemical
[2] = test system: SGK-1 dependent phosphorylation of GSK3beta in U2OS cells; test: SGK-1 dependent phosphorylation of GSK3beta in U2OS cells overexpressing recombinant SGK-1 and GSK3beta; type: cell-based, human; settings: read-out: IC50 values for inhibition of SGK-1 dependent phosphorylation of GSK3beta in U2OS cells
[3] = test system: SGK-1 dependent activation of ENaC-currents in A6 cell monolayers; test: Functional electrophysiological assay (Ussing chamber): SGK-1 dependent activation of ENaC-currents in A6 cell monolayers; type: cell-based, Xenopus laevis; settings: hypoosmotic shock 45 min, amiloride-sensitive ΔI'sc, read-out: IC50 values for inhibition of SGK-1 dependent activation of ENaC-currents in A6 cell monolayers
Method: C) Functional Electrophysiological Assay for Determination of SGK-1 Dependent Activation of ENaC-Currents in A6 Cell Monolayers
Cells were grown in cell culture flasks (Nunc) at 28° C. in a humidified atmosphere with 4% CO2. The culture medium contained a 7:3 mixture of Leibovitz's L-15 (Sigma-Aldrich)/Coon's (Sigma-Aldrich) media supplemented with 10% fetal bovine serum (PAA), 20% sterile water, 25 mM NaHCO3 (Sigma-Aldrich), 100 U/ml penicillin (PAA) and 100 μg/ml streptomycin (PAA). The osmolality of the medium was 270 mOsml/kg H2O). Cells were detached with accutase (PAA) and seeded for electrophysiological measurements into transwell filter inserts (polyester 0.4 μm pore size, Corning) at a density of 0.4×10^6 cells/filter. Cells were cultivated for 7-10 days, and confluent A6 cell monolayers were identified by repetitive resistance measurements in cell culture medium using an EVOM^2 ohmmeter (World Precision Instruments). Monolayers with a resistance of >10 kOhm were considered confluent. Filters with confluent A6 cells were transferred into a continuously perfused Ussing-chamber, and electrophysiological parameters were measured under open circuit conditions using a transepithelial clamp amplifier (EP Design). Short circuit current (I′sc) was calculated by Ohm's law. […] The pH was adjusted to 8.2. All measurements were done at room temperature.
To evaluate the effects of SGK inhibitors on ENaC-mediated transepithelial currents, A6 monolayers were first equilibrated for 5 min with isoosmotic Ringer solution from both the luminal and basolateral side of the cell layer. Amiloride was applied to the luminal site to establish the basal ENaC-dependent current (I′scbasal). Cell layers were then perfused from the basolateral side for 10 min with compounds in isotonic buffer or control isotonic buffer. SGK signaling leading to increased ENaC activity and subsequent increase in I′sc was stimulated by application of hypoosmotic Ringer-solution for 45 min to both sides of the A6 cell layer. ENaC-dependent I′sc after the hypoosmotic shock (I′schypo) was determined by application of amiloride at the end of the experiment. Total changes of amiloride-sensitive Isc was calculated as ΔI′sc=I′schypo−I′scbasal. […] The inhibition of ΔI′sc by the test compounds was determined relative to the ΔI′sc measured with control monolayers which were not treated with the test compound.

[4] = test system: collagen type X (Col10a1) expression in mouse chondrogenic ATDC5 cells; test: Chondrocyte hypertrophic differentiation in mouse chondrogenic ATDC5 cells (collagen type X expression); type: cell-based; settings: Col10a1 expression by quantitative real-time PCR after two weeks of cell culture, read-out: IC50 values for the inhibition of collagen type X expression in mouse chondrogenic ATDC5 cells
Source text: D) Determination of the effect on chondrocyte hypertrophic differentiation in mouse chondrogenic ATDC5 cells
The ATDC5 cell assay was used as in vitro model to determine the effects of the compounds of the invention on chondrocyte hypertrophic differentiation by monitoring the expression levels of collagen type X (Col10a1) as specific marker of chondrocyte hypertrophy.
Background: ATDC5 cells are a clonal mouse embryonic cell line derived from multipotent AT805 teratocarcinoma cells (Atsumi, T. et al., A chondrogenic cell line derived from a differentiating culture of AT805 teratocarcinoma cells, Cell Differ. Dev. 1990, 30, 109-116). The cells can undergo insulin-dependent chondrogenic cell differentiation entailing distinct differentiation stages starting from an undifferentiated, subconfluent stage, a condensation stage, a cartilage nodule formation stage and a calcification stage within 45 days of in vitro culture. Chondrogenic differentiation can be shown by measuring the expression of the cartilage main collagen (Col2a1) and aggrecan (AGC1) and glycosaminoglycan-staining with Alcian Blue within two weeks after insulin-triggered differentiation, and hypertrophic differentiation can be monitored by the expression of collagen type X (Col10a1), a specific marker of chondrocyte hypertrophy within 21 days of in vitro culture. (Shukunami, C. et al., Chondrogenic Differentiation of Clonal Mouse Embryonic Cell Lne ATDC5 In Vitro: Differentiation-dependent Gene Expression of Parathyroid Hormone (PTH)/PTH-related Peptide Receptor, J. Cell Biol. 1996, 133, 457-468). Growth factor BMP-2 is known to stimulate cell differentiation and can stimulate early and late-phase ATDC5 differentiation (Shukunami, C. et al., Sequential Progression of the Differentiation Program by Bone Morphogenetic Protein-2 in Chondrogenic Cell Line ATDC5, Exp. Cell Res. 1998, 241, 1-11). Thyroid hormone triiodothyronine (T3) promotes hypertrophic differentiation of growth plate chondrocytes (Robson, H. et al., Thyroid Hormone Acts Directly on Growth Plate Chondrocytes to Promote Hypertrophic Differentiation and Inhibit Clonal Expansion and Cell Proliferation, Endocrinology 2000, 141, 3887-3897). Addition of BMP2 and T3 can accelerate ATDC5 hypertrophic differentiation leading to the strong induction Col10a1 expression between 10-14 days. SGK-inhibitors were added to differentiating ATDC5 cells for 14 days and Col10a1 gene expression was quantified to determine effects on chondrocyte hypertrophic differentiation.
Cell assay description: ATDC5 cells were maintained in 300 cm^2 tissue culture flasks in DMEM/Ham's F12+5% FCS supplemented with 10 μg/ml human transferrin, 30 nM sodium selenite, 50 μg/ml kanamycin and grown at 37° C. in 5% CO2 in 95% air. To initiate cell differentiation, 9.9×10^4 cells were plated in 24 well plates and grown for 2 days. Medium was exchanged with DMEM/Ham's F12+5% FCS supplemented with 10 μg/ml human transferrin, 30 nM sodium selenite, 50 μg/ml ascorbic acid and 1 μg/ml BMP2. The assay was run in triplicates, compounds were added in […], and medium changed every 2-3 days including supplementation of compound. At day 7 after initiation of cell differentiation, 1 μM T3 was used as additional supplement in the cell culture.
After two weeks of cell culture, RNA was isolated and converted to cDNA for determination of gene expression by quantitative real-time PCR. Cells were lysed in 600 μl of RLT-buffer (Qiagen) and total RNA was isolated using the RNA-easy Mini RNA isolation Kit (Qiagen) which was run on a Qiacube system (Qiagen) according to the supplier's instructions. RNA was isolated in 30 μl of pure water and the RNA content measured by UV-spectroscopy (Nanodrop, Peqlab). For cDNA synthesis 50 ng total RNA was reverse transcribed using the High Capacity cDNA Reverse Transcription Kit (Applied Biosystems, Product Number 4368813) according to the manufacturer's instructions. […]

[5] = molecular target: recombinant human SGK-1 enzyme; test: Enzymatic activity assay: SGK-1 substrate peptide phosphorylation (Caliper lab-chip mobility shift); type: biochemical; settings: peptide substrate 1 μM, ATP 10 μM, 60 min at 37° C., read-out: IC50 values for inhibition of SGK-1 enzymatic activity
[6] = read-out: IC50 values for inhibition of SGK-1 enzymatic activity, peptide substrate 1 μM, ATP 10 μM, 60 min at 37° C.
[7] = Homo sapiens, U2OS cells, 6 h incubation, ratio of phosphorylated GSK3beta to total GSK3beta
[8] = Mus musculus, Chondrocyte, 336 h
[9] = peptide substrate 1 μM, ATP 10 μM, 60 min at 37° C., read-out: IC50 values for inhibition of SGK-1 enzymatic activity
[10] = U2OS cells, 6 h incubation, ratio of phosphorylated GSK3beta to total GSK3beta

recombinant human SGK-1 enzyme (Homo sapiens, UniProt O00141), sequence (O00141 whole entry, looked up): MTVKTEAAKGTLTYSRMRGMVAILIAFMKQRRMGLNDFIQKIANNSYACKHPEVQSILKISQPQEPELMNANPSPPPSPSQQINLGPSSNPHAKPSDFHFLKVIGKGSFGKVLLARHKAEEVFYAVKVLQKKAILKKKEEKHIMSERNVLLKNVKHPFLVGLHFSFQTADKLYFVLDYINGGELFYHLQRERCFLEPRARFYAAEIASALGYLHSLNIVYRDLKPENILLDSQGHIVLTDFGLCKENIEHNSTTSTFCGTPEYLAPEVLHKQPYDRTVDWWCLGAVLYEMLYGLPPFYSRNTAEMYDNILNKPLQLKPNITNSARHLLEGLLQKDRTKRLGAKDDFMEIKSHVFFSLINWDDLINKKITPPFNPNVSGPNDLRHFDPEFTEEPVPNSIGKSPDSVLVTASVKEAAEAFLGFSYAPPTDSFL

Structure (SMILES) | pIC50 [1, 9] | pIC50 [2, 10] | pIC50 [3] | pIC50 [4] | other results
Cc1ccc(C#N)c(S(=O)(=O)Nc2ccc(-c3nc(OC4CCC(O)CC4)c4cn[nH]c4n3)cc2)c1 (stereo not shown) [Example 4, 2-Cyano-N-{4-[4-(4-hydroxy-cyclohexyloxy)-1H-pyrazolo[3,4-d]pyrimidin-6-yl]-phenyl}-5-methyl-benzenesulfonamide] |  |  |  |  | pIC50 [1, 6]: > 8.82; pIC50 [2, 7]: 6.96; pIC50 ([3]; Xenopus laevis, INA-6, 0.75 h): 5.49; pIC50 [4, 8]: 8.05
Cc1nc(-c2ccc(NS(=O)(=O)c3cc(Cl)c(F)cc3F)cc2)nc2[nH]nc(N)c12 [Example 447, N-[4-(3-Amino-4-methyl-1H-pyrazolo[3,4-d]pyrimidin-6-yl)-phenyl]-5-chloro-2,4-difluoro-benzenesulfonamide] |  |  |  |  | pIC50 [1, 6]: > 8.82; pIC50 [2, 7]: 6.47; pIC50 ([3]; Xenopus laevis, INA-6, 0.75 h): 7.22; pIC50 [4, 8]: 6.48
COc1ccc(Cl)c(S(=O)(=O)Nc2ccc(-c3nc(C)c4c(N)n[nH]c4n3)cc2)c1 [Example 467] | > 8.82 | 6.82 | 6.80 | 7.28 | 
N#Cc1ccc(Cl)cc1S(=O)(=O)Nc1ccc(-c2nc(OC3CCC(O)CC3)c3cn[nH]c3n2)cc1 (stereo not shown) [Example 83] | 8.70 | 5.68 | 5.72 | 6.89 | 
O=S(=O)(Nc1ccc(-c2nc(OC3CCC(O)CC3)c3cn[nH]c3n2)cc1)c1cc(Cl)ccc1Cl (stereo not shown) [Example 61] | > 8.92 | 6.37 | 5.85 | 7.44 | 
Cc1ccc(C#N)c(S(=O)(=O)Nc2ccc(-c3cc4[nH]nc(C)c4cn3)cc2)c1 [Example 561, 2-Cyano-5-methyl-N-[4-(3-methyl-1H-pyrazolo[4,3-c]pyridin-6-yl)phenyl]benzenesulfonamide] |  |  |  |  | pIC50 [5]: 8.11; pIC50 ([2]; Homo sapiens, U2OS, 6 h): 5.57
Cc1nc(-c2ccc(NS(=O)(=O)c3cc(Cl)ccc3C#N)cc2)nc2[nH]ncc12 [Example 492] | 8.42 | 5.38 | 5.96 | 6.18 | 
Nc1n[nH]c2cc(-c3ccc(NS(=O)(=O)c4cc(Cl)c(F)cc4F)cc3)nc(O)c12 [Example 549, N-[4-(3-Amino-4-hydroxy-1H-pyrazolo[4,3-c]pyridin-6-yl)phenyl]-5-chloro-2,4-difluoro-benzenesulfonamide] |  |  |  |  | pIC50 [5]: 8.11
Cc1ccc(C#N)c(S(=O)(=O)Nc2ccc(-c3nc(C)c4c(N)n[nH]c4n3)cc2)c1 [Example 468] | > 8.82 | 6.64 | 6.21 | 6.06 | 
COc1ccc(C#N)c(S(=O)(=O)Nc2ccc(-c3nc(C4CC4)c4c(N)n[nH]c4n3)cc2)c1 [Example 520] | > 8.82 | 7.21 | 6.30 | 7.52 | 
Nc1n[nH]c2nc(-c3ccc(NS(=O)(=O)c4cc(F)ccc4F)cc3)ncc12 [Example 519] | 6.72 | 6.59 | 5.96 | 6.59 | 
O=S(=O)(Nc1ccc(-c2cc3[nH]ncc3cn2)cc1)c1cc(Cl)ccc1Cl [Example 563, 2,5-Dichloro-N-[4-(1H-pyrazolo[4,3-c]pyridin-6-yl)phenyl]benzenesulfonamide] |  |  |  |  | pIC50 [5]: 7.28
